Series [1] relates to laser-induced choroidal neovascularization (CNV) area. Briefly: Rat laser-induced choroidal neovascularization (CNV) model; daily administration (Example 1). Conditions: 264 h, read-out: Efficacy Daily % (Ex. 1); for inhibition in vivo at 1 mg/kg: 1 mg/kg oral daily to day 11 or 12, formulation A; for inhibition in vivo at 0.3 mg/kg: 0.3 mg/kg oral daily to day 11 or 12, formulation A. The class given is in vivo, Brown Norway rats. The procedure:
Three month old Brown Norway rats were administered with placebo or active agent of Table 1 at the dosing concentration and formulation specified in Table 2 infra about one hour prior to laser application. The rat eyes were dilated with one drop of phenylephrine and cyclopentolate (Altaire Pharmaceuticals inc. Aqueboque, N.Y. and Akorn Inc. Lake Forest, Ill.) and then immobilized. Each eye was administered four laser burns 2-3 disc diameters from the optic nerve with an Oculight GLx 532 nm laser (Iridex). Each study group had 10 rats, 20 eyes and 80 data points.
After laser insult, the rats were administered placebo or the compounds of Table 1 at the dosing concentration and formulation specified in Table 2 daily from day 1 to day 11 or 12. Immediately before harvesting the eyes, rodents were injected i.v. with a 2,000 kd fluorescein isothiocyanate (FITC) dextran vascular label. Tissues were harvested about 24 hours after the last dose was administered.
Eyes were fixed with 4% paraformaldehyde and the retinal pigment epithelium(RPE)/choroid/sclera complexes dissected and placed onto microscope slides. Fluorescent images of each CNV lesion were captured and lesion areas were quantified on masked data using Axiovision software (Version 4.5 Zeiss). Inter-group differences were analyzed by one-way analysis of variance (ANOVA) with a Neuman-Keuls post hoc analysis (Prism v. 4.02 by GraphPad Software, Inc. La Jolla Calif.). Efficacy is defined herein to mean the percentage reduction in CNV area after treatment compared to placebo.
Each group consisted of 10 rats, 4 laser burns/eye, and 80 data points/group. Assay length was 11 or 12 days after laser (1 mg/kg n=2, 3 mg/kg n=5, 10 mg/kg n=7, 30 mg/kg n=1).

Series [2] has the same test system. Briefly: Rat laser-induced CNV model; weekly administration (Example 3). The class given is in vivo, Brown Norway rats. Conditions: for inhibition in vivo at 1 mg/kg: 1 mg/kg weekly (before laser, day 6 and 13); for Efficacy in a weekly dosing regimen: weekly dosing at doses of Table 2, compared to daily; for inhibition in vivo at 0.3 mg/kg: 0.3 mg/kg weekly (before laser, day 6 and 13); for inhibition in vivo at 3 mg/kg: 3 mg/kg weekly (before laser, day 6 and 13), formulation A (B for Compound 9). The procedure:
After laser insults, the rats were administered the compounds of Table 1 formulated as specified in Table 2 or placebo on day 6 and 13.

Series [3] in a line: Ocular PK in Brown Norway rats following a single oral dose (Example 5). It counts as in vivo. The following applies: for Kp / AUC(0-t): Brown Norway, rat; for Kp: retina/plasma, po; for AUC(0-t): sampling 6-144 hrs; for Concentration over time in posterior eye cup and retina (words, FIG. 3-6): single oral dose per Table 3 (Compound 1 30 mg/kg, Compound 2 10 mg/kg, Compound 9 10 mg/kg). As to the method: Three month old Brown Norway rats were administered orally with active agent of Table 1 at the dosing concentration and formulation specified in Table 3 infra. […] The ocular tissues collected were the retina and the posterior eye cup.
Ocular tissues were homogenized and plasma proteins precipitated and drug concentration was analyzed by LC-MS/MS.

Series [4] deals with neovascular adult macular degeneration (AMD). The following applies: oral, alone or with intravitreal bevacizumab, daily or thrice weekly, three patients; cited from earlier work.
[5] abbreviates: percent reduction in CNV area vs vehicle control.
The mark [6] stands for this setting: Rattus norvegicus, 144 h, formulation A, percent reduction in CNV area vs vehicle control, read-out: Efficacy Weekly % (Ex. 3).
The mark [7] stands for this setting: 3 mg/kg oral daily to day 11 or 12, formulation A (B for Compound 9), percent reduction in CNV area vs vehicle control.
[8] abbreviates: Rattus norvegicus, 144 h, percent reduction in CNV area vs vehicle control, read-out: Efficacy Weekly % (Ex. 3).

Molecules are shown by their SMILES. “Also recorded” adds a separate entry of the source. Read-outs that look alike come from different tables or passages of the source.

Take `Cc1ccc(Nc2nccc(N(C)c3ccc4c(C)n(C)nc4c3)n2)cc1S(N)(=O)=O` [Compound 1, 5-[[4-[(2,3-Dimethyl-2H-indazol-6-yl)methylamino]-2-pyrimidinyl]amino]-2-methylbenzolsulfonamide]: the inhibition in vivo at 30 mg/kg amounted to 42% in series [1] (30 mg/kg oral daily to day 11 or 12, formulation A, percent reduction in CNV area vs vehicle control); 50% in series [2] (Rattus norvegicus, 144 h, 30 mg/kg weekly (before laser, day 6 and 13), formulation A, percent reduction in CNV area vs vehicle control, read-out: Efficacy Weekly % (Ex. 3)). Moreover, the Kp in series [3] (30 mg/kg) was 0.2. The AUC(0-t) in series [3] (single oral dose 30 mg/kg, plasma, read-out: AUC(last) Plasma) turned out to be 583 µM·h; in series [3] (single oral dose 30 mg/kg, posterior eye cup, read-out: AUC(last) PEC), 6820 µM·h; in series [3] (single oral dose 30 mg/kg, retina, read-out: AUC(last) Retina), 132 µM·h. For the same compound, the “Plasma exposure over time (words, FIG. 3-4)” value in series [3] (single oral dose per Table 3 (Compound 1 30 mg/kg, Compound 2 10 mg/kg)) is given as “increased plasma exposure throughout the duration of the week after administration”. In series [3], the “Concentration over time in posterior eye cup and retina (words, FIG. 3-6)” value was “sustained ocular exposure in the posterior eye cup tissues for at least a week”.

For `Nc1cc(Oc2ccc3c(C(=O)Nc4cccc(C(F)(F)F)c4)cccc3c2)ncn1` [Compound 3, 6-(6-Amino-pyrimidin-4-yloxy)-naphthalene-1-carboxylic acid (3-trifluoromethyl-phenyl)-amide], the inhibition in vivo at 1 mg/kg in series [1] (setting [5]) amounted to 63%; in series [2] (setting [6]), 57%. The “Efficacy in a weekly dosing regimen” value in series [2] is “greatest level of efficacy”.

Turning to `CC(=O)N1Cc2ncnc(Oc3ccc4c(ccn4C(=O)Nc4cc(C5CC5)on4)c3)c2C[C@@H]1C` [Compound 4, (−)-5-((S)-7-Acetyl-6-methyl-5,6,7,8-tetrahydro-pyrido[3,4-d]pyrimidin-4-yloxy)-indole-1-carboxylic acid (5-cyclopropyl-isoxazol-3-yl)-amide], the inhibition in vivo at 0.3 mg/kg was found to be 96% in series [1] (setting [5]) and 50% in series [2] (setting [6]).

For the compound `CC1(c2cc(NC(=O)n3ccc4cc(Oc5ncnc6c5CCNC6)ccc43)[nH]n2)CC1` [Compound 5, 5-(5,6,7,8-Tetrahydro-pyrido[3,4-d]pyrimidin-4-yloxy)-indole-1-carboxylic acid [5-(1-methyl-cyclopropyl)-2H-pyrazol-3-yl]-amide], the inhibition in vivo at 10 mg/kg in series [1] (10 mg/kg oral daily to day 11 or 12, formulation A, percent reduction in CNV area vs vehicle control) turned out to be 85%; in series [2] (Rattus norvegicus, 144 h, 10 mg/kg weekly (before laser, day 6 and 13), formulation A, percent reduction in CNV area vs vehicle control, read-out: Efficacy Weekly % (Ex. 3)), 50%.

In the case of `COc1cc2nccc(Oc3ccc(NC(=O)Nc4cc(C)on4)c(Cl)c3)c2cc1OC` [Compound 6, 1-(2-chloro-4-((6,7-dimethoxyquinolin-4-yl)oxy)phenyl)-3-(5-methylisoxazol-3-yl)urea], the inhibition in vivo at 0.3 mg/kg in series [1] (setting [5]) was 79%; in series [2] (setting [6]) it was 40%. For the same compound, the inhibition in vivo at 1 mg/kg in series [1] (setting [5]) turned out to be 96%; in series [2] (setting [6]) it was 90%. The “Loss of efficacy in weekly dosing compared to daily dosing” value in series [2] (0.3 mg/kg) is 39%. Further, in series [2], the “Efficacy in a weekly dosing regimen” value is “greatest level of efficacy”. The same compound yielded a Kp in series [3] (0.3 mg/kg) of 0.6. For the same compound, the AUC(0-t) in series [3] (single oral dose 0.3 mg/kg, plasma, read-out: AUC(last) Plasma) is 1.2 µM·h; in series [3] (single oral dose 0.3 mg/kg, posterior eye cup, read-out: AUC(last) PEC), 83.5 µM·h; in series [3] (single oral dose 0.3 mg/kg, retina, read-out: AUC(last) Retina), 2.47 µM·h. The “Retinal to plasma exposure ratio, comparison among compounds” value in series [3] (single oral dose per Table 3 (Compound 2 10 mg/kg, Compound 6 0.3 mg/kg)) is “lower retinal to plasma exposure ratio than Compound 2”.

As to `O=C(Nc1cccc(C(F)(F)F)c1)c1cccc2cc(Oc3cc(CO)ncn3)ccc12` [Compound 7, 6-(6-Hydroxymethyl-pyrimidin-4-yloxy)-naphthalene-1-carboxylic acid (3-trifluoromethyl-phenyl)-amide], the inhibition in vivo at 3 mg/kg was found to be 96% in series [1] (setting [7]) and 46% in series [2] (setting [8]).

Consider `O=C(Nc1cc(C2CC2)on1)n1ccc2cc(Oc3ncnc4c3CNC4)ccc21` [Compound 8, 5-(6,7-dihydro-5H-pyrrolo[3,4-d]pyrimidin-4-yloxy)-indole-1-carboxylic acid (5-cyclopropyl-isoxazol-3-yl)-amide], for which the inhibition in vivo at 3 mg/kg came out at 88% in series [1] (setting [7]) and 26% in series [2] (setting [8]). In series [2], the “Efficacy in a weekly dosing regimen” value is “least efficacy”.

Take `CNC(=O)c1cc(Oc2ccc(NC(=O)Nc3ccc(Cl)c(C(F)(F)F)c3)cc2)ccn1` [Compound 9, 4-[4-[[4-chloro-3-(trifluoromethyl)phenyl]carbamoylamino]phenoxy]-N-methyl-pyridine-2-carboxamide]: the inhibition in vivo at 3 mg/kg in series [1] (po) is 90%; in series [2] (setting [8]), 26%. The “Efficacy in a weekly dosing regimen” value in series [2] is “least efficacy; also recorded: absence of efficacy”. Also, the “Benefit in neovascular AMD patients” value in series [4] is recorded as “uncertain benefit”. The Kp in series [3] (10 mg/kg) is 2.1. For the same compound, the AUC(0-t) is 151 µM·h in series [3] (single oral dose 10 mg/kg, plasma, read-out: AUC(last) Plasma); 82 µM·h in series [3] (single oral dose 10 mg/kg, posterior eye cup, read-out: AUC(last) PEC); 95.1 µM·h in series [3] (single oral dose 10 mg/kg, retina, read-out: AUC(last) Retina). Moreover, the “Concentration over time in posterior eye cup and retina (words, FIG. 3-6)” value in series [3] was “substantially similar at each sampling time point”.

Turning to `CNCc1cc(Oc2ccc3c(ccn3C(=O)Nc3cc(C(F)(F)F)n(C)n3)c2)ncn1` [Compound 10, 5-(6-Methylaminomethyl-pyrimidin-4-yloxy)-indole-1-carboxylic acid (1-methyl-5-trifluoromethyl-1H-pyrazol-3-yl)-amide], the inhibition in vivo at 1 mg/kg in series [1] (setting [5]) was 88%; in series [2] (setting [6]), 23%. For the same compound, in series [2], the “Efficacy in a weekly dosing regimen” value is recorded as “least efficacy”.

What is called Kp is the ratio of the level in a tissue or fluid to that in plasma or blood.

These data come from patent US20130197016A1, “DOSING REGIMES FOR THE TREATMENT OF OCULAR VASCULAR DISEASE” (priority 2010, published 2013).
